Experimental data from US20240358865A1, “QUINOLINYL AND PRIDINYL CONTAINING COMPOUNDS TARGETING ON ALPHA-SYNUCLEIN FOR NEUROLOGICAL DISEASES” (Washington University, priority 2023, published 2024).
“Also recorded” adds a separate entry of the source.

Columns and labels:
[1] = biological target: T1, α-synuclein fibrils amplified from PD tissue (Homo sapiens, UniProt P37840); assay: Direct radioligand (homologous competitive) binding assay; conditions: read-out: binding affinity for α-synuclein fibrils
T1 construct: from tissue; host or cells: fibrils amplified from PD tissue (Banner amplified fibrils are mentioned)
Excerpt: (§1) The radiosynthesis of [^18F]TZ83-41 was accomplished by a two-step procedure with [^18F]fluoroethyl ptoluenesulfonate as a prosthetic group, followed by O-alkylation to the quinolinyl-containing phenol group. [^18F]TZ80-156 was synthesized starting from the allylic bromide precursor via nucleophilic halogen exchange (halex) reaction with [^18F]fluoride, followed by deprotection of the N-Boc amine with trifluoroacetic acid. Homologous competitive binding assays with α-synuclein fibrils amplified from PD tissue were used to determine the direct binding affinity of the two radioligands. The biodistribution study was performed in male Sprague Dawley (SD) rats at four time points (5, 30, 60 min and 120 min) after intravenous injection of the radiotracer. The uptake of radioactivity was calculated as percentage injected dose per gram (% ID/gram). Both radiotracers were evaluated with microPET imaging using a Focus 220 microPET scanner to collect dynamic scans after intravenous injection into male macaques (NHP) (FIGS. 1A-1C).
(§2) The radioligands [^18F]TZ83-41 and [^18F]TZ80-156 were successfully produced in 17±3% (n=2) and 25±5% (n=2) radiochemical yield (RCY) respectively with high molar activity (>37 GBq/μmol) and high radiochemical purity (>99%), at the end of synthesis (EOS).

[2] = tested on: Alzheimer's disease brain tissue homogenate; assay: Direct radioligand binding to Alzheimer's disease brain tissue homogenate
Excerpt: as §2

[3] = MicroPET imaging of the macaque (NHP) brain; type: in vivo; conditions: for crossing of the blood brain barrier: NHP; for brain standardized uptake value (SUV) maximum: NHP brain, intravenous; for brain standardized uptake value (SUV) maximum / washout from the NHP brain: microPET
Excerpt: as §1

[4] = Biodistribution study in rats; type: in vivo, Sprague Dawley (SD) rats
Excerpt: as §1

[5] = PET studies in the brains of nonhuman primates (Example 3); type: in vivo
Excerpt: A PET study in nonhuman primates found uptake of [^11C]TZ61-84 (FIG. 3C).
Another PET study of [^18F]TZ80-156 and [^18F]TZ83-41 in nonhuman primates also found uptake (FIG. 4A).
A further PET study also found uptake of several additional compounds, including [^18F]TZ80-156 and [^18F]TZ83-41 (FIG. 4B).

alpha-synuclein fibrils = alpha-synuclein fibrils (Homo sapiens, UniProt P37840); assay: Competitive binding to alpha-synuclein fibrils vs [3H]BF2846 (site 9); conditions: for Ki / Ki (nM), in a-syn fibrils v.s. [3H]BF2846: alpha-synuclein fibrils, radioligand [3H]BF2846, binding site 9; for Ki: read-out: Ki (nM), in a-syn fibrils v.s. [3H]BF2846; for max % inh_site9: maximal inhibition of [3H]BF2846 binding to alpha-synuclein fibrils
AD brain tissue = AD brain tissue (Homo sapiens, UniProt P05067); assay: Competitive binding in AD brain tissue vs [3H]PiB; conditions: for Ki: AD brain tissue, radioligand [3H]PiB; for max % Inh_PiB: maximal inhibition of [3H]PiB binding in AD brain tissue
Sequence of AD brain tissue (P05067 whole entry): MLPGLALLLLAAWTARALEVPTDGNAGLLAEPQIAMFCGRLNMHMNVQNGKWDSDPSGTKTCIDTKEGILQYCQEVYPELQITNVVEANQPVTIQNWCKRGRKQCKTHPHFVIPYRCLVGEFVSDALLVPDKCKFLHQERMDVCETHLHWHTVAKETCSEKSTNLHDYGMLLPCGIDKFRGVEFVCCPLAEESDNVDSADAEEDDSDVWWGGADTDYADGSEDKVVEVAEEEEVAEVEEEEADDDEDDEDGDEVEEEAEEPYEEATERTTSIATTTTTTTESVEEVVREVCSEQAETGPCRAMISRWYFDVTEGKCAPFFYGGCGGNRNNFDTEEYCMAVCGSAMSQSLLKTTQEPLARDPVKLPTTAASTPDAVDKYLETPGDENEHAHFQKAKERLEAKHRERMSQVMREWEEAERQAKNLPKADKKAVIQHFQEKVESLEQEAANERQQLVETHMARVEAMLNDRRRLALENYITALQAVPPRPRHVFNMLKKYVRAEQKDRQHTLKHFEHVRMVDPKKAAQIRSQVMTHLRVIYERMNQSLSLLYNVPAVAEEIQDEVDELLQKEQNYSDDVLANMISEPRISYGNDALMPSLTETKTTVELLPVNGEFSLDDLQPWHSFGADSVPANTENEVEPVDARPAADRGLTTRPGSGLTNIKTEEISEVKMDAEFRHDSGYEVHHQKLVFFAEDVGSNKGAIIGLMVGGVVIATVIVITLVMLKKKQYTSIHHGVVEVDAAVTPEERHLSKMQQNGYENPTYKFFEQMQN
Protocol: The binding potency for Abeta was determined using [^3H]PIB for these new compounds (FIG. 5B).
If the Ki value is smaller, these compounds are potent for AD brain tissue binding and are not selective for alpha-synuclein over abeta, or PD over AD.

[6] = NHP plasma radiometabolite study (column-switching HPLC); type: in vivo, Monkey; conditions: for Peak B (%) (parental tracer): monkey plasma
Excerpt: Monkey arterial/venous blood samples were collected at various intervals during the PET scans to measure the radio metabolite profile using the column-switching HPLC system equipped with an Oasis HLB online capture column (80 Å, 15 μm, 3.9 mm×20 mm, Waters 186001414) with Universal Guard Column holder (WAT046910, Waters) and a Agilent ZORBAX Eclipse XDB-C18 analytical column (5 μm, 250×4.6 mm, Part No. 990967-902), following a published protocol (Hilton J, et al., Nucl Med Biol. 2000 August; 27(6):627-30; Cai Z, et al., ACS Chem Neurosci. 2020 Feb. 19; 11(4):592-603).
Briefly, blood samples (vary with volume, 4-8 mL) were collected at 5, 15, 30, 60, 90 min post-injection of radiotracer. The whole blood was centrifuged at RCF 1300 g for 5 min to separate the blood cells and obtain plasma. Clean supernatant plasma was collected and added into solid urea to eliminate competitive protein binding and to allow complete backflush of the parent compound and metabolites from the capture column to analytical column. Typically, 3.2 mL of plasma is added to 2.12 g of urea to yield a final concentration of 8 M urea and a final volume of about 4.5 mL. The plasma-urea mix was then filtered through a Whatman® GD/X syringe filters (pore size 1 μm, diam. 13 mm, WHA68841310, Sigma, USA) and injected into a 5 mL HPLC loop concatenating with the capture column, which eluted with 1% acetonitrile in ammonium formate (0.1 M, pH=4.5) at 2 mL/min for 4 min. The enriched radioactivity in the short capture column was reverse flowed into an analytical C18 column with 60% acetonitrile and 40% ammonium formate (0.1 M, pH=4.5) at a flow rate of 1.0 mL/min for 25 min.
The radioactive peak B is the parental [^18F]TZ83-41 tracer with retention time of 14.3 min; one radiometabolite is peak A at 6.8 min (FIG. 2A and FIG. 2B).

SMILES	Ki (alpha-synuclein fibrils)	max % inh_site9 (alpha-synuclein fibrils)	Ki (AD brain tissue)	max % Inh_PiB (AD brain tissue)	other results
COc1ccc(Nc2ccc3cc(OC/C=C/C[18F])ccc3n2)cn1 [[^18F]TZ80-156]					Kd [1]: 0.035 µM; binding to Alzheimer's disease brain tissue homogenate [2]: little to no binding; crossing of the blood brain barrier [3]: crossed the blood brain barrier; brain standardized uptake value (SUV) maximum [3]: ~2.0; washout from the NHP brain [3]: favorable washout rate; also recorded: favorable washout kinetics; bone uptake ([4]; 5 min): 0.45; brain uptake ([4]; 5 min): 0.86 % ID/gram; bone uptake ([4]; 30 min): 2.18; brain uptake ([4]; 30 min): 0.25 % ID/gram; brain uptake ([4]; 60 min): 0.16 % ID/gram; bone uptake ([4]; 120 min): 3.09; defluorination ([4]; judged from bone uptake): Significant defluorination; brain uptake in PET study [5]: found uptake
COc1ccc(Nc2ccc3cc(OC(F)F)ccc3n2)cn1 [TZ80-37]	22.9 ± 28.2 nM	60%	99 ± 90 nM	70%	
COc1ccc2c(c1)CCC(Nc1cc(C)n[nH]1)=N2 [TZ88-7]			90 ± 155 nM	90%	Ki (nM), in a-syn fibrils v.s. [3H]BF2846 (alpha-synuclein fibrils): None
COc1cccc(COc2ccc3nc(Nc4ccc(OC)nc4)ccc3c2)c1 [TZ80-77]	32.8 ± 43.8 nM	100%	15 ± 23.5 nM	100%	
COc1ccc2cc(Nc3ccc(OC)nc3)ncc2c1 [TZ90-4]	46.2 ± 39.2 nM	Shallow	3.1 ± 2.3 nM	100%	
COc1ccc(Nc2ccc3cc(OC/C=C/CF)ccc3n2)cn1 [TZ80-156]	14.9 ± 19.1 nM	100%	> 1000 nM		
CCCOc1ccc(Nc2ccc3cc(OCC[18F])ccc3n2)cn1 [[^18F]TZ83-41]					Kd [1]: 0.0076 µM; binding to Alzheimer's disease brain tissue homogenate [2]: little to no binding; crossing of the blood brain barrier [3]: crossed the blood brain barrier; brain standardized uptake value (SUV) maximum [3]: ~2.0; washout from the NHP brain [3]: favorable washout rate; also recorded: favorable washout kinetics; also recorded: suitable brain washout pharmacokinetics; brain uptake (in words) ([3]; nonhuman primate brain imaging): high brain uptake; brain uptake ([4]; from 5 to 120 min): 0.71˜0.24 % ID/gram; Peak B (%) (parental tracer) ([6]; 5 min post-injection): 92%; Peak B (%) (parental tracer) ([6]; 15 min post-injection): 69%; Peak B (%) (parental tracer) ([6]; 30 min post-injection): 59%; Peak B (%) (parental tracer) ([6]; 60 min post-injection): 47%; Peak B (%) (parental tracer) ([6]; 90 min post-injection): 38%; lipophilic radiometabolite entering the brain ([6]; nonhuman primate plasma samples post injection): no lipophilic radiometabolite; brain uptake in PET study [5]: found uptake
COc1ccc2nc(/C=C/c3nc4ccc(OC)cc4s3)ccc2c1 [TZ90-21]	129 ± 77 nM		0.19 nM	30%	
COc1ccc(Nc2ccc3cc(OCc4cccnc4)ccc3n2)cn1.Cl [TZ80-66-B]	30.4 ± 42.1 nM	70%	25.2 ± 21.7 nM	80%	
COc1ccc2nc(Nc3cc(-c4ccccc4)n[nH]3)ccc2c1 [TZ88-5]	55.6 nM	40%	7.1 ± 10.5 nM	100%	
CCOc1ccc(Nc2ccc3cc(OCCF)ccc3n2)cn1.Cl [TZ83-40]	13.3 ± 26.1 nM	60%	354 ± 407 nM	40%	
COc1ccc2nc(Nc3ccc(-n4cccn4)nc3)ccc2c1 [TZ88-11]			46 ± 78 nM	70%	Ki (nM), in a-syn fibrils v.s. [3H]BF2846 (alpha-synuclein fibrils): None
